Measured values reported in US8933015B2, “Macrocyclic inhibitors of flaviviridae viruses” (Gilead Sciences, Inc., priority 2010, dated 2015).

Conditions: from C=CCC[C@H](CC(=O)N[C@H](C(=O)N[C@@H](Cc1cccc(O[Si](C)(C)C(C)(C)C)c1)C(=O)N1CCC[C@@H](C(=O)O[C@H](C)c2cccc(C=C)c2)N1)C(C)C)OC; rcm bond; 22-membered ring; Hoveyda-Grubbs II; DCE; 2.63 mM; 80.0 °C; 1.5 h

For `CO[C@@H]1CC/C=C/c2cccc(c2)[C@@H](C)OC(=O)[C@@H]2CCCN(N2)C(=O)[C@H](Cc2cccc(O[Si](C)(C)C(C)(C)C)c2)NC(=O)[C@H](C(C)C)NC(=O)C1`, the ring closure, isolated yield was 46%.
